According to ChEMBL document CHEMBL1128893, “Synthesis and characterization of N-(acenaphth-5-yl)-N'-(4-methoxynaphth-1-yl)guanidine as a glutamate release inhibitor and potential anti-ischemic agent” (Bioorg Med Chem Lett, 1995):

What was measured:
[1] = target: T1, Sodium channel protein type 2 subunit alpha (Homo sapiens, UniProt Q99250); assay: (§1) Blockade of synaptosomal sodium channels, inhibition of [14C]guanidinium ion flux into CHO cells expressing Type II sodium channel
[2] = target: T1, Sodium channel protein type 2 subunit alpha; assay: as §1; type: functional, cell-based
[3] = Inhibition of 45 [Ca2+] flux into rat brain synaptosomes depolarized by elevated potassium concentrations; type: functional, subcellular
[4] = target: Sodium channel alpha subunits; brain (Types I, II, III) (Rattus norvegicus) (UniProt P04775+P04774+P08104); settings: at 3 µM
Description: Inhibition of veratridine-induced glutamate release, blockade of rat brain synaptosome voltage-gated sodium channels at 3 uM

Rattus norvegicus = species on record: Rattus norvegicus; assay: Compound was evaluated for the inhibition of K+ -evoked glutamate release through block of voltage-gated [Ca2+] -channels, in the rat brain synaptosomal preparations; type: functional, organism-based

T1 sequence (Q99250 whole entry): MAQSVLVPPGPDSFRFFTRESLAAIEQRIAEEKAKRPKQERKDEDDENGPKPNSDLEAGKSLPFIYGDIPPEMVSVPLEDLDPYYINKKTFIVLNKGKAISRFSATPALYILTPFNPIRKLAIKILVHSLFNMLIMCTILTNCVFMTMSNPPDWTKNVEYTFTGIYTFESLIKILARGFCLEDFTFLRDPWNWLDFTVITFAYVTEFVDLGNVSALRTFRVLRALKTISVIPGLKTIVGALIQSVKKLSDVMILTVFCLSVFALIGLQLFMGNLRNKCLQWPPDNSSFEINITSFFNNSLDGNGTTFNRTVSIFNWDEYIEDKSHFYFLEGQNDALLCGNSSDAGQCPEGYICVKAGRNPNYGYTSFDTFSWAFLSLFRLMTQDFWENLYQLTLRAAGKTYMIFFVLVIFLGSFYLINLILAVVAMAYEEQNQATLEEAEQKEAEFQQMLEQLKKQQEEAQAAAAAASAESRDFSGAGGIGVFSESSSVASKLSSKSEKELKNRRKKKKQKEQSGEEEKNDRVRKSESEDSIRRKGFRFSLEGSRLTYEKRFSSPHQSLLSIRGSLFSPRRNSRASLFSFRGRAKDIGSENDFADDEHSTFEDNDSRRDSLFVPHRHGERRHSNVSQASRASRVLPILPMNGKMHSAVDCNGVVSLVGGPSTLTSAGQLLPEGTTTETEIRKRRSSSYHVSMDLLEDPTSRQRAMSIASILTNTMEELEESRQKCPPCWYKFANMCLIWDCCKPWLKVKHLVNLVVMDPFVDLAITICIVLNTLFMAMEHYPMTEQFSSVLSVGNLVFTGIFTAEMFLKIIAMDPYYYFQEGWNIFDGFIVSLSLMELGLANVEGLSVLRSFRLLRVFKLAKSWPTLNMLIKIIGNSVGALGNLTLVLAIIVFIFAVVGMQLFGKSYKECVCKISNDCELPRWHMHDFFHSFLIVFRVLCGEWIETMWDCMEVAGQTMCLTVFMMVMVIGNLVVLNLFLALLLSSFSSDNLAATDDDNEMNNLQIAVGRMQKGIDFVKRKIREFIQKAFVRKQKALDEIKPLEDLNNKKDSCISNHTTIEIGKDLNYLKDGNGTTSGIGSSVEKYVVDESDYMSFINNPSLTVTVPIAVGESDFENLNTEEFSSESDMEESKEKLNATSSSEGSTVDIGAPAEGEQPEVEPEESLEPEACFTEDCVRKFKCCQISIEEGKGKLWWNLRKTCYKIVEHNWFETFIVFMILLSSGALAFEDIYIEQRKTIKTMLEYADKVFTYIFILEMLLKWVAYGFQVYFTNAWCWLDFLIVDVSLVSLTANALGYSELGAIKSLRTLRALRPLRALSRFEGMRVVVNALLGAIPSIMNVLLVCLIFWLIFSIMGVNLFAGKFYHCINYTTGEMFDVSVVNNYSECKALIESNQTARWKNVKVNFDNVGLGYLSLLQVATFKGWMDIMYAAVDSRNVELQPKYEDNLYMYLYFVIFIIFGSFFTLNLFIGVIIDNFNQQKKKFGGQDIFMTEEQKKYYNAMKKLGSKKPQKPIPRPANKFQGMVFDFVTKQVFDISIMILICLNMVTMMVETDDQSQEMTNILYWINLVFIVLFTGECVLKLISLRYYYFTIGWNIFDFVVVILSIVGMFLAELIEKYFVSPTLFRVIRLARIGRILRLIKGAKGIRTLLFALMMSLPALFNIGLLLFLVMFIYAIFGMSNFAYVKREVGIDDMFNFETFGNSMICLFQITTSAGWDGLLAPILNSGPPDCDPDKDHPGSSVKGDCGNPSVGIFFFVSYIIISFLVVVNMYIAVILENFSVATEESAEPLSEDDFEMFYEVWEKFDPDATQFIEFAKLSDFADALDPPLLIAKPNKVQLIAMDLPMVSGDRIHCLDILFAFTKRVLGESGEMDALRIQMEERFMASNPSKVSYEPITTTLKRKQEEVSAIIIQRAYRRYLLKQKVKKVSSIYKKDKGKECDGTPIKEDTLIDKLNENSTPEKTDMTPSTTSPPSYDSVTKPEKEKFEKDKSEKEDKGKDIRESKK

Row | Structure (SMILES) | IC50 [1] | IC50 [2] | IC50 [3] | Block [4] | IC50 (Rattus norvegicus)
1 | CN1CCN(c2ncc(-c3cc(Cl)cc(Cl)c3Cl)c(N)n2)CC1 [SIPATRIGINE] | 2550 nM | – | – | – | –
2 | Nc1nc2ccc(OC(F)(F)F)cc2s1 [RILUZOLE] | – | 2200 nM | > 30000 nM | 49% | –
3 | N=C(Nc1ccc2c3c(cccc13)CC2)Nc1ccc2c3c(cccc13)CC2 | – | 2030 nM | 1130 nM | – | 800 nM
4 | COc1ccc(/N=C(\N)Nc2ccc3c4c(cccc24)CC3)c2ccccc12 | – | 1310 nM | 2240 nM | 87% | 1000 nM
